Source: patent US8367873B2, “Phenyl-substituted bicyclooctane-1,3-dione derivatives” (Bayer Cropscience AG, priority 2008, dated 2013)

Legend:
Assay type in all cases: in vivo
[1] = test system: Lolium multiflorum; test: Herbicidal post-emergence action; settings: post-emergence method; for herbicidal effect against LOLMU (Lolium multiflorum): 80 g/ha; for pest or weed control at 80 g/ha: Lolium multiflorum, 504 h, read-out: herbicidal effect against LOLMU (Lolium multiflorum)
Procedure: (§1) Seeds of monocotylidonous and dicotylidonous weed and crop plants are placed in sandy loam in wood fibre pots, covered with soil and cultivated in a greenhouse under good growth conditions. Two to three weeks after sowing, the test plants are treated at the one-leaf stage. The test compounds, formulated as wettable powders (WP), are then with a water application rate of 600 l/ha (converted), with 0.2% of wetting agent added, sprayed onto the green parts of the plants in different amounts. After the test plants have been kept in the greenhouse under optimum growth conditions for about three weeks, the effect of the preparations is assessed visually in comparison to untreated controls (herbicidal effect in percent: 100% effect=the plants have died, 0% effect=like control plants).

[2] = test system: Echinocloa crus-galli; test: Herbicidal post-emergence action; settings: post-emergence method; for herbicidal effect against ECHCG (Echinochloa crus-galli): 80 g/ha; for pest or weed control at 80 g/ha: Echinochloa crus-galli, 504 h, read-out: herbicidal effect against ECHCG (Echinochloa crus-galli)
Procedure: as §1

[3] = test system: Alopecurus myosuroides; test: Herbicidal post-emergence action; settings: post-emergence method; for herbicidal effect against ALOMY (Alopecurus myosuroides): 80 g/ha; for pest or weed control at 80 g/ha: Alopecurus myosuroides, 504 h, read-out: herbicidal effect against ALOMY (Alopecurus myosuroides)
Procedure: as §1

[4] = test system: Setaria viridis; test: Herbicidal post-emergence action; settings: post-emergence method; for herbicidal effect against SETVI (Setaria viridis): 80 g/ha; for pest or weed control at 80 g/ha: Setaria viridis, 504 h, read-out: herbicidal effect against SETVI (Setaria viridis)
Procedure: as §1

[5] = test system: monocotylidonous and dicotylidonous weed and crop plants; test: Herbicidal post-emergence action (other test plants); settings: post-emergence method; for herbicidal effect against AVEFA (Avena fatua): 80 g/ha; for pest or weed control at 80 g/ha: 504 h, Avena fatua, read-out: herbicidal effect against AVEFA (Avena fatua)
Procedure: as §1

| Structure (SMILES) | herbicidal effect against LOLMU (Lolium multiflorum) [1] | herbicidal effect against ECHCG (Echinochloa crus-galli) [2] | herbicidal effect against ALOMY (Alopecurus myosuroides) [3] | herbicidal effect against SETVI (Setaria viridis) [4] | herbicidal effect against AVEFA (Avena fatua) [5] | pest or weed control at 80 g/ha [1] | pest or weed control at 80 g/ha [2] | pest or weed control at 80 g/ha [3] | pest or weed control at 80 g/ha [4] | pest or weed control at 80 g/ha [5] |
| --- | --- | --- | --- | --- | --- | --- | --- | --- | --- | --- |
| Cc1cc(C)c(C2=C(OC(=O)C(C)(C)CCl)C3CC(=O)CC3C2=O)c(C)c1 (centres unmarked) [I-b-52] | 0% | 100% | 0% | 90% | 0% | – | – | – | – | – |
| C#CCON=C1CC2C(=O)C(c3c(C)cc(C)cc3C)=C(OC(=O)C(C)(C)C)C2C1 (centres unmarked) [I-b-59] | 80% | 80% | 20% | 0% | 0% | – | – | – | – | – |
| CCOC(=O)OC1=C(c2c(C)cc(C)cc2C)C(=O)C2CC(=O)CC12 (racemic) [I-c-58] | 0% | 100% | 0% | 100% | 0% | – | – | – | – | – |
| CCOC(=O)OC1=C(c2c(CC)cc(C)cc2CC)C(=O)C2CC(=NOC(C)(C)C)CC12 (centres unmarked) [I-c-38] | 90% | 80% | 70% | 30% | 0% | – | – | – | – | – |
| Cc1cc(C)c(C2=C(OC(=O)C(C)C)C3CC(=O)CC3C2=O)c(C)c1 (centres unmarked) [I-b-54] | 0% | 100% | 20% | 100% | 0% | – | – | – | – | – |
| CCOC(=O)OC1=C(c2c(CC)cc(C)cc2CC)C(=O)[C@@H]2CC3(C[C@H]12)SCCS3 (relative stereo) [I-c-15] | 90% | 90% | 90% | 90% | 60% | – | – | – | – | – |
| CCc1cc(C)cc(C)c1C1=C(OC(=O)C(C)(C)C)C2CC(=O)CC2C1=O (centres unmarked) [I-b-71] | 0% | 100% | 0% | 100% | 0% | – | – | – | – | – |
| CCC(=O)OC1=C(c2c(C)cc(C)cc2C)C(=O)C2CC3(COC(C)(C)O3)CC12 (mixture of isomers) [I-b-50] | 100% | 90% | 100% | 80% | 0% | – | – | – | – | – |
| C#CCON=C1CC2C(=O)C(c3c(C)cc(C)cc3C)=C(OC(=O)OC)C2C1 (racemic) [I-c-59] | 60% | 100% | 0% | 20% | 0% | – | – | – | – | – |
| Cc1cc(C)c(C2=C(OC(=O)OC(C)C)C3CC4(COC(C)(C)O4)CC3C2=O)c(C)c1 (mixture of isomers) [I-c-55] | 100% | 100% | 80% | 30% | 20% | – | – | – | – | – |
| Cc1cc(C)c(C2=C(OC(=O)C(C)(C)C)C3CC(=O)CC3C2=O)c(C)c1 (centres unmarked) [I-b-60] | 0% | 100% | 0% | 80% | 0% | – | – | – | – | – |
| CCc1cc(C)cc(CC)c1C1=C(OC(=O)OC)C2CC(=O)CC2C1=O (centres unmarked) [I-c-42] | 0% | 100% | 0% | 100% | 0% | – | – | – | – | – |
| CCc1cc(C)cc(CC)c1C1C(=O)[C@H]2C/C(=N\OC)C[C@H]2C1=O (some centres unmarked) [I-a-18] | – | – | – | – | – | 100% | 100% | 90% | 90% | 60% |
| CCC(=O)OC1=C(c2c(C)cc(C)cc2C)C(=O)C2CC(=O)CC12 (centres unmarked) [I-b-57] | 0% | 100% | 0% | 100% | 0% | – | – | – | – | – |
| CCOC(=O)OC1=C(c2c(CC)cc(C)cc2CC)C(=O)C2CC3(CC12)SCCCS3 (centres unmarked) [I-c-16] | 80% | 90% | 0% | 30% | 30% | – | – | – | – | – |
| C#CCON=C1CC2C(=O)C(c3c(C)cc(C)cc3C)=C(O)C2C1 (centres unmarked) [I-a-43] | 40% | 90% | 20% | 40% | 0% | – | – | – | – | – |
| COCC(=O)OC1=C(c2c(C)cc(C)cc2C)C(=O)C2CC(=O)CC12 (centres unmarked) [I-b-53] | 0% | 100% | 20% | 90% | 0% | – | – | – | – | – |
| COc1cc(C)cc(C)c1C1=C(O)C2CC3(CC2C1=O)OCCCO3 (centres unmarked) [I-a-47] | 100% | 100% | 20% | 100% | 80% | – | – | – | – | – |
| C#CCON=C1C[C@@H]2C(O)=C(c3c(CC)cc(C)cc3CC)C(=O)[C@@H]2C1 (relative stereo) [I-a-33] | 100% | 100% | 100% | 90% | 0% | – | – | – | – | – |
| CCOC(=O)OC1=C(c2c(CC)cc(C)cc2CC)C(=O)C2CC(=O)CC12 (centres unmarked) [I-c-17] | – | – | – | – | – | 40% | 100% | 30% | 90% | 0% |
| COC(=O)OC1=C(c2c(C)cc(C)cc2C)C(=O)C2CC(=O)CC12 (racemic) [I-c-57] | 0% | 100% | 90% | 90% | 0% | – | – | – | – | – |
| CCc1cc(C)cc(CC)c1C1=C(O)[C@H]2CC3(C[C@H]2C1=O)SCCCS3 (relative stereo) [I-a-17] | 90% | 90% | 30% | 80% | 40% | – | – | – | – | – |
| Cc1cc(C)c(C2=C([O-])C3CC4(CC3C2=O)OC(C)CC(C)O4)c(C)c1.[Na+] (centres unmarked) [I-f-3] | 90% | 90% | 90% | 80% | 0% | – | – | – | – | – |
| CCc1cc(C)cc(CC)c1C1=C(O)[C@H]2CC(=O)C[C@H]2C1=O (stereo in doubt) [I-a-4, 2-(2,6-diethyl-4-methylphenyl)-3-hydroxy-3a,4,6,6a-tetrahydropentalene-1,5-dione] | – | – | – | – | – | 20% | 100% | 60% | 100% | 30% |
| CCC(C)(C)C(=O)OC1=C(c2c(C)cc(C)cc2C)C(=O)C2CC(=O)CC12 (centres unmarked) [I-b-55] | 0% | 90% | 0% | 90% | 0% | – | – | – | – | – |
| CCc1cc(C)cc(C)c1C1=C(O)C2CC3(CC2C1=O)OCC=CCO3 (centres unmarked) [I-a-60] | 100% | 100% | 100% | 100% | 90% | – | – | – | – | – |
| C#CCON=C1CC2C(=O)C(c3c(C)cc(C)cc3C)=C(OC(=O)C(C)C)C2C1 (centres unmarked) [I-b-58] | 60% | 80% | 0% | 20% | 0% | – | – | – | – | – |
| CCC(=O)OC1=C(c2c(CC)cc(C)cc2CC)C(=O)C2CC3(CC12)SCCCS3 (centres unmarked) [I-b-9] | 40% | 90% | 90% | 40% | 0% | – | – | – | – | – |
